In US7118895B2, “Process for producing aglycon by using diglycosidase and flavor-improved food containing the aglycon and converting agent to be used in the process” (Amano Enzyme Inc., priority 2000, dated 2006):

Columns and labels:
Crude diglycosidase = assay: Examination of substrate concentration in the conversion into isoflavone aglycons by diglycosidase using soybean materials; type: biochemical, Penicillium multicolor IAM7153;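 further: percent of the isoflavone family total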
Summary of the method: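 Reaction at 55° C, shaken, pH 4.0 (20 mM acetate), using crude diglycosidase from a 1.88 AU/mL enzyme solution on soy flour, soymilk, defatted soybean or soy protein concentrate at 2, 5, 10, 20 or 30% (w/v). Isoflavone aglycons quantified by HPLC of ethanol extracts at 0, 1, 3, 6 h.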

[1] = test system: Diglycosidase derived from P. multicolor; assay: Reactivity toward various isoflavone glycosides (HPLC); type: biochemical, Penicillium multicolor; design: glucoside / aglycon: unit not given here; details: 55 °C, pH 4.0
Summary of the method: (§1)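 Aglycone liberation was measured by reversed-phase HPLC (260 nm, calibration-curve quantitation) after ethanol extraction at 0, 1, 3 and 6 h. Reactions ran at 55° C, pH 4.0 (20 mM acetate), with each glycoside (from 2 mM methanol stock) and 0.75 AU/mL enzyme solution.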

[2] = test system: β-Glucosidase derived from A. niger; assay: as above; type: biochemical, Aspergillus niger; design: glucoside / aglycon: unit not given here; details: 55 °C, pH 4.0
Summary of the method: as §1

COc1cc2c(=O)c(-c3ccc(O)cc3)coc2cc1O[C@@H]1O[C@H](CO)[C@@H](O)[C@H](O)[C@H]1O [glycitin]
Decomposition efficiency: ratio of each glycoside/aglycon within its isoflavone family (Crude diglycosidase; roasted soy flour, substrate concentration 10%, heat treatment of enzyme no, reaction time 6 h): not detected | Decomposition efficiency: ratio of each glycoside/aglycon within its isoflavone family (Crude diglycosidase; roasted soy flour, substrate concentration 10%, heat treatment of enzyme yes, reaction time 6 h): 55.0% | Decomposition efficiency: ratio of each glycoside/aglycon within its isoflavone family (Crude diglycosidase; roasted soy flour, substrate concentration 20%, heat treatment of enzyme no, reaction time 0 h): 59.6% | Decomposition efficiency: ratio of each glycoside/aglycon within its isoflavone family (Crude diglycosidase; roasted soy flour, substrate concentration 20%, heat treatment of enzyme no, reaction time 1 h): not detected | Decomposition efficiency: ratio of each glycoside/aglycon within its isoflavone family (Crude diglycosidase; roasted soy flour, substrate concentration 20%, heat treatment of enzyme no, reaction time 3 h): not detected | Decomposition efficiency: ratio of each glycoside/aglycon within its isoflavone family (Crude diglycosidase; roasted soy flour, substrate concentration 20%, heat treatment of enzyme no, reaction time 6 h): not detected | Decomposition efficiency: ratio of each glycoside/aglycon within its isoflavone family (Crude diglycosidase; roasted soy flour, substrate concentration 20%, heat treatment of enzyme yes, reaction time 6 h): 56.0% | Decomposition efficiency: ratio of each glycoside/aglycon within its isoflavone family (Crude diglycosidase; roasted soy flour, substrate concentration 30%, heat treatment of enzyme no, reaction time 0 h): 55.9% | Decomposition efficiency: ratio of each glycoside/aglycon within its isoflavone family (Crude diglycosidase; roasted soy flour, substrate concentration 30%, heat treatment of enzyme no, reaction time 1 h): not detected | Decomposition efficiency: ratio of each glycoside/aglycon within its isoflavone family (Crude diglycosidase; roasted soy flour, substrate concentration 30%, heat treatment of enzyme no, reaction time 3 h): not detected | Decomposition efficiency: ratio of each glycoside/aglycon within its isoflavone family (Crude diglycosidase; roasted soy flour, substrate concentration 30%, heat treatment of enzyme no, reaction time 6 h): not detected | Decomposition efficiency: ratio of each glycoside/aglycon within its isoflavone family (Crude diglycosidase; roasted soy flour, substrate concentration 30%, heat treatment of enzyme yes, reaction time 6 h): 56.9% | Decomposition efficiency: ratio of each glycoside/aglycon within its isoflavone family (Crude diglycosidase; soymilk, substrate concentration 2%, heat treatment of enzyme no, reaction time 0 h): 71.8% | Decomposition efficiency: ratio of each glycoside/aglycon within its isoflavone family (Crude diglycosidase; soymilk, substrate concentration 2%, heat treatment of enzyme no, reaction time 1 h): not detected | Decomposition efficiency: ratio of each glycoside/aglycon within its isoflavone family (Crude diglycosidase; soymilk, substrate concentration 2%, heat treatment of enzyme no, reaction time 3 h): not detected | Decomposition efficiency: ratio of each glycoside/aglycon within its isoflavone family (Crude diglycosidase; soymilk, substrate concentration 2%, heat treatment of enzyme no, reaction time 6 h): not detected | Decomposition efficiency: ratio of each glycoside/aglycon within its isoflavone family (Crude diglycosidase; soymilk, substrate concentration 2%, heat treatment of enzyme yes, reaction time 6 h): 51.8% | Decomposition efficiency: ratio of each glycoside/aglycon within its isoflavone family (Crude diglycosidase; soymilk, substrate concentration 5%, heat treatment of enzyme no, reaction time 0 h): 49.4% | Decomposition efficiency: ratio of each glycoside/aglycon within its isoflavone family (Crude diglycosidase; soymilk, substrate concentration 5%, heat treatment of enzyme no, reaction time 1 h): not detected | Decomposition efficiency: ratio of each glycoside/aglycon within its isoflavone family (Crude diglycosidase; soymilk, substrate concentration 5%, heat treatment of enzyme no, reaction time 3 h): not detected | Decomposition efficiency: ratio of each glycoside/aglycon within its isoflavone family (Crude diglycosidase; soymilk, substrate concentration 5%, heat treatment of enzyme no, reaction time 6 h): not detected | Decomposition efficiency: ratio of each glycoside/aglycon within its isoflavone family (Crude diglycosidase; soymilk, substrate concentration 5%, heat treatment of enzyme yes, reaction time 6 h): 56.7% | Decomposition efficiency: ratio of each glycoside/aglycon within its isoflavone family (Crude diglycosidase; soymilk, substrate concentration 10%, heat treatment of enzyme no, reaction time 0 h): 52.5% | Decomposition efficiency: ratio of each glycoside/aglycon within its isoflavone family (Crude diglycosidase; soymilk, substrate concentration 10%, heat treatment of enzyme no, reaction time 1 h): not detected | Decomposition efficiency: ratio of each glycoside/aglycon within its isoflavone family (Crude diglycosidase; soymilk, substrate concentration 10%, heat treatment of enzyme no, reaction time 3 h): not detected | Decomposition efficiency: ratio of each glycoside/aglycon within its isoflavone family (Crude diglycosidase; soymilk, substrate concentration 10%, heat treatment of enzyme no, reaction time 6 h): not detected | Decomposition efficiency: ratio of each glycoside/aglycon within its isoflavone family (Crude diglycosidase; soymilk, substrate concentration 10%, heat treatment of enzyme yes, reaction time 6 h): 56.8% | Decomposition efficiency: ratio of each glycoside/aglycon within its isoflavone family (Crude diglycosidase; soymilk, substrate concentration 20%, heat treatment of enzyme no, reaction time 0 h): 52.4% | Decomposition efficiency: ratio of each glycoside/aglycon within its isoflavone family (Crude diglycosidase; soymilk, substrate concentration 20%, heat treatment of enzyme no, reaction time 1 h): not detected | Decomposition efficiency: ratio of each glycoside/aglycon within its isoflavone family (Crude diglycosidase; soymilk, substrate concentration 20%, heat treatment of enzyme no, reaction time 3 h): not detected | Decomposition efficiency: ratio of each glycoside/aglycon within its isoflavone family (Crude diglycosidase; soymilk, substrate concentration 20%, heat treatment of enzyme no, reaction time 6 h): not detected | Decomposition efficiency: ratio of each glycoside/aglycon within its isoflavone family (Crude diglycosidase; soymilk, substrate concentration 20%, heat treatment of enzyme yes, reaction time 6 h): 55.5% | Decomposition efficiency: ratio of each glycoside/aglycon within its isoflavone family (Crude diglycosidase; soymilk, substrate concentration 30%, heat treatment of enzyme no, reaction time 0 h): 50.9% | Decomposition efficiency: ratio of each glycoside/aglycon within its isoflavone family (Crude diglycosidase; soymilk, substrate concentration 30%, heat treatment of enzyme no, reaction time 1 h): not detected | Decomposition efficiency: ratio of each glycoside/aglycon within its isoflavone family (Crude diglycosidase; soymilk, substrate concentration 30%, heat treatment of enzyme no, reaction time 3 h): not detected | Decomposition efficiency: ratio of each glycoside/aglycon within its isoflavone family (Crude diglycosidase; soymilk, substrate concentration 30%, heat treatment of enzyme no, reaction time 6 h): not detected | Decomposition efficiency: ratio of each glycoside/aglycon within its isoflavone family (Crude diglycosidase; soymilk, substrate concentration 30%, heat treatment of enzyme yes, reaction time 6 h): 55.8% | aglycon ([1]; Reaction time 0 h): 0 | glucoside ([1]; Reaction time 0 h): 100 | aglycon ([1]; Reaction time 1 h): 97.9 | glucoside ([1]; Reaction time 1 h): 2.1 | aglycon ([1]; Reaction time 3 h): 99.8 | glucoside ([1]; Reaction time 3 h): 0.2 | aglycon ([1]; Reaction time 6 h): 99.7 | glucoside ([1]; Reaction time 6 h): 0.3 | reactivity of β-glucosidase derived from Aspergillus niger (in words) [2]: act well | aglycon ([2]; Reaction time 0 h): 0 | glucoside ([2]; Reaction time 0 h): 100 | aglycon ([2]; Reaction time 1 h): 49.5 | glucoside ([2]; Reaction time 1 h): 50.5 | aglycon ([2]; Reaction time 3 h): 88.3 | glucoside ([2]; Reaction time 3 h): 11.7 | aglycon ([2]; Reaction time 6 h): 95.5 | glucoside ([2]; Reaction time 6 h): 4.5
